From BindingDB's records for doi:10.1016/j.bmcl.2013.01.056 (Fudan University, 2013)

Molecular target: Signal transducer and activator of transcription 3 (Homo sapiens, UniProt P40763)
Test: Inhibition of IL-6-induced STAT3 pathway in human HepG2 cells by luciferase reporter gene assay

Chain of Signal transducer and activator of transcription 3 (P40763 whole entry): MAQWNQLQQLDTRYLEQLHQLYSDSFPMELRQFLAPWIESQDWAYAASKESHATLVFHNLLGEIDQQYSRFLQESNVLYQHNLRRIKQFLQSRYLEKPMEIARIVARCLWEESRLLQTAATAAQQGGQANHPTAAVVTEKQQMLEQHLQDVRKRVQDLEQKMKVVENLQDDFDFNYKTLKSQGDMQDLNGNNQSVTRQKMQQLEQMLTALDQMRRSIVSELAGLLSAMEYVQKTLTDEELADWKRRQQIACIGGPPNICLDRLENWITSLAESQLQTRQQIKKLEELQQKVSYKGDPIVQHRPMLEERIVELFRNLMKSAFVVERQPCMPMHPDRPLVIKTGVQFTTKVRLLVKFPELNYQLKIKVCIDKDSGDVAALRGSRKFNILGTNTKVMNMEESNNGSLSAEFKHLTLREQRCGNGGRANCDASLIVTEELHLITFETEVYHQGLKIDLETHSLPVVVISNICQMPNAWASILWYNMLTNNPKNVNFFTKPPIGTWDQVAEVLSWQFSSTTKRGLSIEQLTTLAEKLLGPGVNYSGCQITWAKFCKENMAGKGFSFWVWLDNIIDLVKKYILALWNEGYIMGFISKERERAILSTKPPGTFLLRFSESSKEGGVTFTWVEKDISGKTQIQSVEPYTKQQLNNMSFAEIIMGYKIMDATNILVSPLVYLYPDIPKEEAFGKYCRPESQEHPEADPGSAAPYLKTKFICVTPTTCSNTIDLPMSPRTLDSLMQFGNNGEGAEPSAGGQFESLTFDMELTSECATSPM

| IC50 | SMILES |
| --- | --- |
| 59.9 µM | OCCNCc1cc(Br)ccc1OCc1ccc(Cl)cc1 |
| 24.3 µM | NS(=O)(=O)c1ccc(NCc2cc(Cl)ccc2OCc2ccccc2)cc1 |
| 26.7 µM | Oc1ccc(NCc2cc(Cl)ccc2OCc2ccc(Cl)cc2)cc1 |
